Laboratory results reported in patent EP2167084B1, “AN ALLERGEN DOSAGE FORM COMPRISING AN ANTIHISTAMINE” (ALK-Abelló A/S, priority 2007, dated 2008).

Experiment: Cross-over, single-centre investigation of the effect of desloratidine on local adverse effects caused by Phleum pratense pollen extract (Grazax)
Type: in vivo, patients
Settings: 2.5 mg, half the daily dose for a person above 12 years of age, given with Grazax
Description: Investigation of the effect of desloratidine on adverse effects such itching in or around the mouth and the lips, ithching throat, itching in the ears and eyes caused by Phleum pratense pollen extract
The study was is was a cross-over, single-centre investigation.
The patients participated on two single days (visit 1 and visit 2) separated by approximately two weeks to avoid development of tolerance due to Grazax treatment. The subjects received one Grazax 75,000 SQ-T on Visit 1 and if they reported treatment related local adverse events in the mouth and/or throat after intake they were eligible for Visit 2. If no treatment related adverse events were reported after Grazax intake on Visit 1 the subjects were excluded from the study. On visit 2, the subjects received 1 antihistamine (Aerius (Desloratadine) melting tablet 2.5 mg, i.e. orally-disintegrating tablet). Grazax was administered immediately after intake of antihistamine.
AEs were reported on AE pages. AEs were rated mild, moderate or severe. Furthermore, the subjects rated the AE severity on a Visual Analogue Scale (VAS). The AEs of interest were itching mouth, itching throat or other local reactions.
A total of 15 subjects attended visit 1. […] These were therefore eligible for visit 2. Key selection criteria were: • 1. […]

Clc1ccc2c(c1)CCc1cccnc1C2=C1CCNCC1 [desloratidine]
relief from the itching of the mouth and pharynx: sufficient to relieve most patients
